Measurements: patent US20060069132A1, “Azolecarboxamide herbicides” (priority 2004, published 2006)

Assays:
blackgrass = test: Test B postemergence herbicide test; format: in vivo, Alopecurus myosuroides; settings: postemergence
Method in brief: (§1)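 Treated at 2-leaf (paddy) or 1–4-leaf, 2–18 cm (postemergence); greenhouse 13–15 d; visual score vs control, 0 none to 100 complete control; dash = not tested.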

morningglory = test: Test B pre-/postemergence herbicide test; format: in vivo, Ipomoea coccinea; settings: for Morningglory plant response rating (0 to 100 scale) / Plant response rating, Morningglory: 0 = no effect, 100 = complete control, preemergence; for Morningglory plant response rating: postemergence
Method in brief: (§2)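 Herbicidal effect was judged by eye on a 0–100 scale after plants stood 13 to 15 days in the greenhouse following pre- or postemergence treatment with surfactant-containing formulations.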

barnyardgrass [1] = test: Test B pre-/postemergence herbicide test; format: in vivo, Echinochloa crus-galli; settings: for Barnyardgrass plant response rating (0 to 100 scale) / Plant response rating, Barnyardgrass: 0 = no effect, 100 = complete control, preemergence; for Barnyardgrass plant response rating: postemergence
Method in brief: as §2

[2] = system: small flower umbrella sedge; test: Test B flooded paddy test; format: in vivo, Cyperus difformis; settings: 1000 g ai/ha, scale 0 to 100 (0 no effect, 100 complete control)
Method in brief: as §1

cocklebur = test: Test B pre-/postemergence herbicide test; format: in vivo, Xanthium strumarium; settings: for Cocklebur plant response rating (0 to 100 scale) / Plant response rating, Cocklebur: 0 = no effect, 100 = complete control, preemergence; for Cocklebur plant response rating: postemergence
Method in brief: as §2

barnyardgrass [3] = test: Test B flooded paddy test; format: in vivo, Echinochloa crus-galli; settings: 1000 g ai/ha, scale 0 to 100 (0 no effect, 100 complete control)
Method in brief: as §1

wild oat = test: Test B postemergence herbicide test; format: in vivo, Avena fatua; settings: postemergence
Method in brief: (§3)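 After treating 2-leaf paddy plants or 2–18 cm postemergence plants (1 to 4 leaves) with formulated chemical, researchers kept them in a greenhouse for 13–15 days. Effects were judged visually versus controls: 0 indicates none, 100 total control.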

pigweed = test: Test B pre-/postemergence herbicide test; format: in vivo, Amaranthus retroflexus; settings: for Pigweed plant response rating: postemergence
Method in brief: (§4)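 Evaluation is visual, comparing treated with control plants on a scale where 0 means no effect and 100 means full control. Treatments were preemergence, or postemergence on seedlings 2–18 cm tall, and held 13–15 days in the greenhouse.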

giant foxtail = test: Test B pre-/postemergence herbicide test; format: in vivo, Setaria faberi; settings: for Foxtail, Giant plant response rating (0 to 100 scale) / Plant response rating, Foxtail, Giant: 0 = no effect, 100 = complete control, preemergence; for Foxtail, Giant plant response rating: postemergence
Method in brief: as §4

large crabgrass = test: Test B pre-/postemergence herbicide test; format: in vivo, Digitaria sanguinalis; settings: for Crabgrass, Large plant response rating (0 to 100 scale) / Plant response rating, Crabgrass, Large: 0 = no effect, 100 = complete control, preemergence; for Crabgrass, Large plant response rating: postemergence
Method in brief: as §4

rice = test: Test B flooded paddy test; format: in vivo, Oryza sativa; settings: 1000 g ai/ha, scale 0 to 100 (0 no effect, 100 complete control)
Method in brief: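 Each value is a visual 0–100 response rating taken against controls 13 to 15 days after treatment in the greenhouse. Plants received formulated chemical postemergence at the 1- to 4-leaf stage or, in flooded paddy, at the 2-leaf stage.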

Surinam grass = test: Test B pre-/postemergence herbicide test; format: in vivo, Urochloa decumbens; settings: for Surinam Grass plant response rating (0 to 100 scale) / Plant response rating, Surinam Grass: 0 = no effect, 100 = complete control, preemergence; for Surinam Grass plant response rating: postemergence
Method in brief: as §4

lambsquarters = test: Test B pre-/postemergence herbicide test; format: in vivo, Chenopodium album; settings: for Lambsquarters plant response rating: postemergence
Method in brief: as §4

velvetleaf = test: Test B pre-/postemergence herbicide test; format: in vivo, Abutilon theophrasti; settings: for Velvetleaf plant response rating: postemergence; for Plant response rating, Velvetleaf: 0 = no effect, 100 = complete control, preemergence
Method in brief: as §4

wheat = test: Test B postemergence herbicide test; format: in vivo, Triticum aestivum; design: key to Wheat plant response rating: 0 = no effect, 100 = complete control; settings: postemergence
Method in brief: as §3

[4] = 125 g ai/ha, visual rating, scale 0 (no effect) to 100 (complete control)
[5] = 500 g ai/ha, scale 0 to 100, 0 is no effect, 100 is complete control
[6] = 125 g ai/ha, 0 = no effect, 100 = complete control, preemergence
[7] = 500 g ai/ha, visual rating, 0 = no effect, 100 = complete control, preemergence

CCn1nc(C(C)(C)C)cc1C(=O)Nc1cncc(C(=O)N2CC=CC2)n1 [Compound 290]
Blackgrass plant response rating (blackgrass; [4]): 20
Blackgrass plant response rating (blackgrass; [5]): 30
Morningglory plant response rating (0 to 100 scale) (morningglory; 125 g ai/ha): 0
Morningglory plant response rating (morningglory; [4]): 0
Plant response rating, Morningglory (morningglory; 500 g ai/ha, visual rating): 0
Morningglory plant response rating (morningglory; [5]): 0
Barnyardgrass plant response rating (0 to 100 scale) (barnyardgrass [1]; 125 g ai/ha): 0
Barnyardgrass plant response rating (barnyardgrass [1]; [4]): 0
Plant response rating, Barnyardgrass (barnyardgrass [1]; 500 g ai/ha, visual rating): 80
Barnyardgrass plant response rating (barnyardgrass [1]; [5]): 0
Sedge, Umbrella plant response rating [2]: 70
Cocklebur plant response rating (0 to 100 scale) (cocklebur; 125 g ai/ha): 0
Cocklebur plant response rating (cocklebur; [4]): 0
Plant response rating, Cocklebur (cocklebur; 500 g ai/ha, visual rating): 0
Cocklebur plant response rating (cocklebur; [5]): 10
Barnyardgrass plant response rating (barnyardgrass [3]): 70
Oat, Wild plant response rating (wild oat; [4]): 20
Oat, Wild plant response rating (wild oat; [5]): 40
Pigweed plant response rating (0 to 100 scale) (pigweed; [6]): 0
Pigweed plant response rating (pigweed; [4]): 10
Plant response rating, Pigweed (pigweed; [7]): 100
Pigweed plant response rating (pigweed; [5]): 10
Foxtail, Giant plant response rating (0 to 100 scale) (giant foxtail; 125 g ai/ha): 10
Foxtail, Giant plant response rating (giant foxtail; [4]): 20
Plant response rating, Foxtail, Giant (giant foxtail; 500 g ai/ha, visual rating): 80
Foxtail, Giant plant response rating (giant foxtail; [5]): 60
Crabgrass, Large plant response rating (0 to 100 scale) (large crabgrass; 125 g ai/ha): 0
Crabgrass, Large plant response rating (large crabgrass; [4]): 0
Plant response rating, Crabgrass, Large (large crabgrass; 500 g ai/ha, visual rating): 90
Crabgrass, Large plant response rating (large crabgrass; [5]): 0
Rice plant response rating (rice): 60
Surinam Grass plant response rating (0 to 100 scale) (Surinam grass; 125 g ai/ha): 0
Surinam Grass plant response rating (Surinam grass; [4]): 0
Plant response rating, Surinam Grass (Surinam grass; 500 g ai/ha, visual rating): 10
Surinam Grass plant response rating (Surinam grass; [5]): 30
Lambsquarters plant response rating (0 to 100 scale) (lambsquarters; [6]): 100
Lambsquarters plant response rating (lambsquarters; [4]): 10
Plant response rating, Lambsquarters (lambsquarters; [7]): 100
Lambsquarters plant response rating (lambsquarters; [5]): 20
Velvetleaf plant response rating (velvetleaf; [4]): 0
Plant response rating, Velvetleaf (velvetleaf; 500 g ai/ha, visual rating): 0
Velvetleaf plant response rating (velvetleaf; [5]): 10
Wheat plant response rating (wheat; [4]): 20
Wheat plant response rating (wheat; [5]): 30

CCOC(=O)c1cccc(NC(=O)c2cc(C3(C)CC3)nn2CC)c1 [Compound 295]
Blackgrass plant response rating (blackgrass; [4]): 30
Blackgrass plant response rating (blackgrass; [5]): 40
Morningglory plant response rating (0 to 100 scale) (morningglory; 125 g ai/ha): 0
Morningglory plant response rating (morningglory; [4]): 50
Plant response rating, Morningglory (morningglory; 500 g ai/ha, visual rating): 20
Morningglory plant response rating (morningglory; [5]): 100
Barnyardgrass plant response rating (0 to 100 scale) (barnyardgrass [1]; 125 g ai/ha): 10
Barnyardgrass plant response rating (barnyardgrass [1]; [4]): 30
Plant response rating, Barnyardgrass (barnyardgrass [1]; 500 g ai/ha, visual rating): 20
Barnyardgrass plant response rating (barnyardgrass [1]; [5]): 50
Sedge, Umbrella plant response rating [2]: 80
Cocklebur plant response rating (0 to 100 scale) (cocklebur; 125 g ai/ha): 0
Cocklebur plant response rating (cocklebur; [4]): 40
Plant response rating, Cocklebur (cocklebur; 500 g ai/ha, visual rating): 0
Cocklebur plant response rating (cocklebur; [5]): 90
Barnyardgrass plant response rating (barnyardgrass [3]): 60
Oat, Wild plant response rating (wild oat; [4]): 40
Oat, Wild plant response rating (wild oat; [5]): 50
Pigweed plant response rating (0 to 100 scale) (pigweed; [6]): 0
Pigweed plant response rating (pigweed; [4]): 100
Pigweed plant response rating (pigweed; [5]): 100
Foxtail, Giant plant response rating (0 to 100 scale) (giant foxtail; 125 g ai/ha): 10
Foxtail, Giant plant response rating (giant foxtail; [4]): 60
Plant response rating, Foxtail, Giant (giant foxtail; 500 g ai/ha, visual rating): 70
Foxtail, Giant plant response rating (giant foxtail; [5]): 70
Crabgrass, Large plant response rating (0 to 100 scale) (large crabgrass; 125 g ai/ha): 10
Crabgrass, Large plant response rating (large crabgrass; [4]): 30
Plant response rating, Crabgrass, Large (large crabgrass; 500 g ai/ha, visual rating): 80
Crabgrass, Large plant response rating (large crabgrass; [5]): 60
Rice plant response rating (rice): 50
Surinam Grass plant response rating (0 to 100 scale) (Surinam grass; 125 g ai/ha): 0
Surinam Grass plant response rating (Surinam grass; [4]): 50
Plant response rating, Surinam Grass (Surinam grass; 500 g ai/ha, visual rating): 20
Surinam Grass plant response rating (Surinam grass; [5]): 60
Lambsquarters plant response rating (0 to 100 scale) (lambsquarters; [6]): 0
Lambsquarters plant response rating (lambsquarters; [4]): 40
Lambsquarters plant response rating (lambsquarters; [5]): 60
Velvetleaf plant response rating (velvetleaf; [4]): 70
Plant response rating, Velvetleaf (velvetleaf; 500 g ai/ha, visual rating): 60
Velvetleaf plant response rating (velvetleaf; [5]): 100
Wheat plant response rating (wheat; [4]): 20
Wheat plant response rating (wheat; [5]): 30
